Measured values from patent US20260191196A1, “COMPOSITIONS AND METHODS FOR IMPROVING SOIL MICROBIAL POPULATIONS” (SYNGENTA CROP PROTECTION AG, priority 2022, published 2026).

Legend:
soil bacterial community = experiment: Plant associated soil microbiome: bacterial community by 16S rRNA gene amplicon sequencing; type: in vivo, tomato plants
Method: To detect microbial community modifications in the soil microbiome associated with the cyclobutrifluram treatment against root knot nematodes, PCR amplification and successive high-throughput sequencing of bacterial and fungal taxonomical marker genes (the small-subunit ribosomal RNA gene (16S) and the ribosomal internal transcribed spacers (ITS) respectively) were performed on plant-associated soil samples.
Bacterial ASVs were detected by 16SrRNA gene amplicon sequencing with taxonomy assignment at ASV level. The relative abundance in Control and Cyclobutrifluram treated samples and, when statistically significative (Deseq2, p=0.1), the relative abundance variation is reported in Table 1a, reporting bacterial ASVs detected by 16S rRNA gene amplicon sequencing with taxonomy assignment at ASV level. Here is reported the relative abundance in Control and Cyclobutrifluram treated samples and, when statistically significative (Deseq2, p=0.1), the relative abundance variation. Shown are the bacteria with an abundance of above 0.01%.

[1] = tested on: arbuscular mycorrhizae fungi; experiment: Mycorrhization in soybean roots after seed treatment; type: in vivo
Method: Soybeans of variety Toliman were treated with 0.15 mg ai/seed of cyclobutrifluram and analogues, and planted in 1.5 L pots of 0-3 mm sieved soil. The seeds were inoculated with Bradyrhizobium japonicum using a commercially available product for soybeans.
In a first series, for each active ingredient tested, 15 replicate pots were sowed. In each pot, 3 seeds were sowed. After germination, 2 seedling was removed from each pot to a final number of 1 plant per pot. Each pot was inoculated with a small amount of a mycorrhizal inoculant (Blend A, commercially available from Symbiom, Czech Republic). The plants were grown in a greenhouse for 81 days under the following conditions: Humidity at 45-64%, Temperature of 22° C. to 24° C., in a 16/8 hour day/night cycle. In a further test series, Soybeans seeds treated as outlined above were then planted in 1 Lpots of 0-3 mm sieved soil. For each active ingredient, 8 replicate pots were sowed, whereby in each pot, 3 seeds were sowed. After germination, 2 seedlings were removed from each pot to a final number of 1 plant per pot.
The plants were then grown in a growth chamber for 42 days with the following conditions: Temperature of 20° C. and with a 12/12 hour day/night.
After harvest, the percent mycorrhization was quantified using the methods of McGonigle et al. (T. P. McGONIGLE, M. H. MILLER and D. G. EVANS et al., “A new method which gives an objective measure of colonization of roots by vesicular-arbuscular mycorrhizal fungi”. New Phytol. Vol. 115 (3): 495-501.).

[2] = tested on: Trichoderma brevicompactum; experiment: Potato field trial: beneficial fungi in soil (ITS sequencing, differential abundance); type: in vivo, potato (Solanum tuberculosum L.); settings: location B; 200 and 250 gai/ha
Method: (§1) In this experiment, assuming that biodiversity can be measured by the taxonomic richness and abundance of each taxon, the differences between treatments are determined and their effect on populations and beneficial species over time is verified. This leads to testing two hypotheses. Firstly, there is an impact of cyclobutrifluram applications on microbial diversity. Secondly, the use of cyclobutrifluram improves beneficial microbial diversity over time. These hypotheses were tested in two potato farms in the USA.
The experiment was carried out in two potato (Solanum tuberculosum L.) fields located in two test locations in Louisiana, USA, described as locations A and B in Table 2. […]
(§2) As set out above, to detect microbial community modifications in the soil microbiome associated with the cyclobutrifluram treatment, PCR amplification and successive high-throughput sequencing of bacterial and fungal taxonomical marker genes (the small-subunit ribosomal RNA gene (16S) and the ribosomal internal transcribed spacers (ITS) respectively) were performed on plant-associated soil samples. An exploratory data analysis was conducted to describe the microbial biodiversity and the behaviour of the percentage of the abundance of species under the evaluated factors. […]

[3] = tested on: bacteria (16S) and fungi (ITS) communities; experiment: Potato field trial: soil microbiome community and biodiversity; type: in vivo, potato (Solanum tuberculosum L.); settings: locations A and B, T0-T3
Method: as §1
(§3) The experiment was carried out in two potato (Solanum tuberculosum L.) fields located in two test locations in Louisiana, USA, described as locations A and B in Table 2. In each experimental field, three products were tested in an area of 10 m^2 (Table 3) and three replicates per product were established by complete block randomized. To evaluate the effects on the microbiome a “Check” plot (untreated) was established. In addition, fluopyram was employed as a comparative example. Fluopyram is a widely used fungicide and nematicide, and represents the industry standard herein.
(§4) To analyse the microbial biodiversity, three soil samples were taken per treatment and each sample consisted of soil collected from three different points within the plots. In this way, the effect of soil variability was minimized, since there were nine samples per treatment. […]
as §2

[4] = tested on: beneficial bacterial species; experiment: Potato field trial: beneficial bacteria in soil (16S sequencing, differential abundance); type: in vivo, potato (Solanum tuberculosum L.)
Method: as §1, §3, §4, §2

[5] = Cyclobutrifluram treated plant-associated soil

O=C(N[C@@H]1CC[C@@H]1c1ccc(Cl)cc1Cl)c1cccnc1C(F)(F)F (racemic) [Cyclobutrifluram, cyclobutrifluram]
relative abundance variation vs Control, Acidobacteria-6 (ASV, Class) (soil bacterial community; 1st Acidobacteria-6 ASV (r9), Deseq2, p=0.1): +0.050%
relative abundance variation vs Control, Acidobacteria-6 (ASV, Class) (soil bacterial community; 2nd Acidobacteria-6 ASV (r16), Deseq2, p=0.1): +0.051%
relative abundance variation vs Control, Acidobacteria-6 (ASV, Class) (soil bacterial community; 3rd Acidobacteria-6 ASV (r18), Deseq2, p=0.1): +0.027%
relative abundance variation vs Control, Acidobacteria-6 (ASV, Class) (soil bacterial community; 4th Acidobacteria-6 ASV (r19), Deseq2, p=0.1): +0.028%
relative abundance variation vs Control, Acidobacteria-6 (ASV, Class) (soil bacterial community; 5th Acidobacteria-6 ASV (r22), Deseq2, p=0.1): +0.071%
relative abundance variation vs Control, Acidobacteria-6 (ASV, Class) (soil bacterial community; 6th Acidobacteria-6 ASV (r24), Deseq2, p=0.1): +0.030%
modifications in the bacterial diversity (soil bacterial community; 16S rRNA gene amplicon sequencing): no modifications
Relative abundance, Gaiella (ASV, Genus) (soil bacterial community; [5]): 0.065%
Relative abundance, Gemmatimonadetes (ASV, Class) (soil bacterial community; [5]): 0.071%
Relative abundance, Microlunatus (ASV, Genus) (soil bacterial community; [5]): 0.032%
Relative abundance, Myxococcales (ASV, Order) (soil bacterial community; [5]): 0.033%
Relative abundance, PK29 (ASV, Order) (soil bacterial community; [5]): 0.021%
Relative abundance, Planctomyces (ASV, Genus) (soil bacterial community; [5]): 0.016%
Relative abundance, Rhizobiales (ASV, Order) (soil bacterial community; [5]): 0.025%
Relative abundance, Streptosporangiaceae (ASV, Family) (soil bacterial community; [5]): 0.020%
Relative abundance, Acidobacteria-6 (ASV, Class) (soil bacterial community; Cyclobutrifluram treated plant-associated soil, 1st Acidobacteria-6 ASV (r9)): 0.050%
Relative abundance, Acidobacteria-6 (ASV, Class) (soil bacterial community; Cyclobutrifluram treated plant-associated soil, 2nd Acidobacteria-6 ASV (r16)): 0.051%
Relative abundance, Acidobacteria-6 (ASV, Class) (soil bacterial community; Cyclobutrifluram treated plant-associated soil, 3rd Acidobacteria-6 ASV (r18)): 0.027%
Relative abundance, Acidobacteria-6 (ASV, Class) (soil bacterial community; Cyclobutrifluram treated plant-associated soil, 4th Acidobacteria-6 ASV (r19)): 0.028%
Relative abundance, Acidobacteria-6 (ASV, Class) (soil bacterial community; Cyclobutrifluram treated plant-associated soil, 5th Acidobacteria-6 ASV (r22)): 0.084%
Relative abundance, Acidobacteria-6 (ASV, Class) (soil bacterial community; Cyclobutrifluram treated plant-associated soil, 6th Acidobacteria-6 ASV (r24)): 0.030%
relative abundance variation vs Control, Gaiella (ASV, Genus) (soil bacterial community; Deseq2, p=0.1): +0.065%
relative abundance variation vs Control, Gemmatimonadetes (ASV, Class) (soil bacterial community; Deseq2, p=0.1): +0.071%
relative abundance variation vs Control, Microlunatus (ASV, Genus) (soil bacterial community; Deseq2, p=0.1): +0.032%
relative abundance variation vs Control, Myxococcales (ASV, Order) (soil bacterial community; Deseq2, p=0.1): +0.033%
relative abundance variation vs Control, PK29 (ASV, Order) (soil bacterial community; Deseq2, p=0.1): +0.021%
relative abundance variation vs Control, Planctomyces (ASV, Genus) (soil bacterial community; Deseq2, p=0.1): +0.016%
relative abundance variation vs Control, Rhizobiales (ASV, Order) (soil bacterial community; Deseq2, p=0.1): +0.025%
relative abundance variation vs Control, Streptosporangiaceae (ASV, Family) (soil bacterial community; Deseq2, p=0.1): +0.020%
modifications in the bacterial community at genus level (soil bacterial community; differential abundance analysis, Cyclobutrifluram treatment): no significant modifications
relative abundance of the 14 ASVs found to be significantly changing (soil bacterial community; following cyclobutrifluram treatment): < 0.1%
response vs control in vivo at 0.15 mg/seed ([1]; Glycine max, soybean variety Toliman, seed treatment 0.15 mg ai/seed, mycorrhizal inoculant Blend A, relative to control, read-out: [%] arbuscular mycorrhizae fungi colonization vs. control.): 115%
level of mycorrhizal colonization in soybean roots (in words) ([1]; compared to control): higher colonization
Trichoderma brevicompactum relative abundance [2]: significant enhancement
changes into the soil microbiome community [3]: did not induce negative changes
abundance of Bacillus halmapalus and B. cereus ([4]; T2 (60 days after treatment)): increased significantly
Sphingomonas species (S. sediminicola, S. japsi and S. daechungensis) abundance ([4]; location A in T3 (120 days after application), location B in T2 (60 days after application)): tend to increase significantly
Pseudomonas putida abundance ([4]; location A, 200 and 250 gai/ha): significant increase
